Laboratory results from ChEMBL document CHEMBL4177750, “Imidazopyrazinones (IPYs): Non-Quinolone Bacterial Topoisomerase Inhibitors Showing Partial Cross-Resistance with Quinolones” (J Med Chem, 2018).
In brackets after ≈: the same amount, converted by molar mass. Activity calls are given as the source filed them. The calls are words filed in the database; no cut-off is given here.

Legend:
[1] = tested on: Escherichia coli; experiment: Antibacterial activity against ESBL producing Escherichia coli ATCC 35218 after 20 to 22 hrs; format: functional
[2] = tested on: Escherichia coli; experiment: Antibacterial activity against Escherichia coli K-12 MG1655 after 20 to 22 hrs; conditions: K-12 substr. MG1655
[3] = tested on: Escherichia coli; experiment: Antibacterial activity against tolC-deficient Escherichia coli K-12 MG1655 after 20 to 22 hrs; format: functional; conditions: K-12 substr. MG1655
[4] = tested on: Pseudomonas aeruginosa; experiment: Antibacterial activity against Pseudomonas aeruginosa PAO1 after 20 to 22 hrs; format: functional
[5] = tested on: Pseudomonas aeruginosa; experiment: Antibacterial activity against Pseudomonas aeruginosa PAO750 harboring mexAB-oprM/mexCD-oprJ/mexEF-oprN/mexXY/opmH/mexJK/pscC deletion mutant after 20 to 22 hrs; format: functional
[6] = tested on: Staphylococcus aureus; experiment: Antibacterial activity against methicillin-resistant Staphylococcus aureus ATCC 33592 after 20 to 22 hrs; format: functional
[7] = tested on: Staphylococcus aureus; experiment: Antibacterial activity against methicillin-resistant Staphylococcus aureus ATCC 33592 after 20 to 22 hrs in presence of 50% calf fetal serum; format: functional, organism-based
[8] = tested on: Staphylococcus aureus; experiment: Antibacterial activity against methicillin-resistant Staphylococcus aureus ATCC 33592 after 20 to 22 hrs in presence of 50% mouse serum; format: functional, organism-based
[9] = Drug metabolism in human liver microsomes at 5 uM after 20 mins in presence of NADPH; format: ADME, microsome; conditions: read-out: Drug metabolism
[10] = Drug metabolism in mouse liver microsomes at 5 uM after 20 mins in presence of NADPH; format: ADME, microsome; conditions: read-out: Drug metabolism
[11] = Drug metabolism in rat liver microsomes at 5 uM after 20 mins in presence of NADPH; format: ADME, microsome; conditions: read-out: Drug metabolism
[12] = Metabolic stability in mouse plasma at 1 uM after 4 hrs; format: ADME, cell-free; conditions: read-out: Stability
[13] = Metabolic stability in rat plasma at 1 uM after 4 hrs; format: ADME, cell-free; conditions: read-out: Stability
[14] = tested on: L5178Y; experiment: Genotoxicity in mouse L5178Y cells after 23 hrs in absence of S9 fraction by micronucleus test; format: toxicity, cell-based
[15] = tested on: L5178Y; experiment: Genotoxicity in mouse L5178Y cells after 3 hrs in presence of S9 fraction by micronucleus test; format: toxicity, cell-based; conditions: s9, 3 h
[16] = tested on: Escherichia coli; experiment: Antibacterial activity against tolC-deficient fluoroquinolones-sensitive Escherichia coli JC7623 clinical isolate harboring wild type DNA gyrase after 20 to 22 hrs
[17] = tested on: Escherichia coli; experiment: Antibacterial activity against tolC-deficient fluoroquinolones-resistant Escherichia coli W4753 clinical isolate harboring DNA gyrase S83L/D87N/ParC S80I/ParE S458A mutant after 20 to 22 hrs
[18] = tested on: Escherichia coli; experiment: Antibacterial activity against hyperpermeable Escherichia coli D22 harboring LpxC mutant after 20 to 22 hrs
[19] = Cytotoxicity against human HepG2 cells assessed as decrease in cell viability after 40 hrs by Celltiter Glo assay
[20] = Solubility of the compound in water; format: physicochemical; conditions: buffer
[21] = Permeability across human Caco2 cells; format: ADME, cell-based; conditions: Caco-2
[22] = Metabolic stability in mouse liver microsomes; format: ADME, microsome
[23] = Metabolic stability in human liver microsomes; format: ADME, microsome
[24] = Drug degradation in DMSO solution in presence of mercaptoethanol measured within 1 hr; format: physicochemical; conditions: DMSO solution with mercaptoethanol; read-out: Drug degradation
[25] = Drug degradation in DMSO solution in presence of glutathione measured within 1 hr; format: physicochemical; conditions: DMSO solution with glutathione; read-out: Drug degradation
[26] = Chemical stability in pH 7.4 buffer solution; format: physicochemical
[27] = molecular target: hERG (KCNH2) (Homo sapiens, UniProt Q12809); experiment: Inhibition of human ERG transfected in CHO cells at 10 uM by patch clamp method relative to control; format: cell-based; conditions: CHO cells transfected with human ERG
hERG (KCNH2), sequence (Q12809 whole entry): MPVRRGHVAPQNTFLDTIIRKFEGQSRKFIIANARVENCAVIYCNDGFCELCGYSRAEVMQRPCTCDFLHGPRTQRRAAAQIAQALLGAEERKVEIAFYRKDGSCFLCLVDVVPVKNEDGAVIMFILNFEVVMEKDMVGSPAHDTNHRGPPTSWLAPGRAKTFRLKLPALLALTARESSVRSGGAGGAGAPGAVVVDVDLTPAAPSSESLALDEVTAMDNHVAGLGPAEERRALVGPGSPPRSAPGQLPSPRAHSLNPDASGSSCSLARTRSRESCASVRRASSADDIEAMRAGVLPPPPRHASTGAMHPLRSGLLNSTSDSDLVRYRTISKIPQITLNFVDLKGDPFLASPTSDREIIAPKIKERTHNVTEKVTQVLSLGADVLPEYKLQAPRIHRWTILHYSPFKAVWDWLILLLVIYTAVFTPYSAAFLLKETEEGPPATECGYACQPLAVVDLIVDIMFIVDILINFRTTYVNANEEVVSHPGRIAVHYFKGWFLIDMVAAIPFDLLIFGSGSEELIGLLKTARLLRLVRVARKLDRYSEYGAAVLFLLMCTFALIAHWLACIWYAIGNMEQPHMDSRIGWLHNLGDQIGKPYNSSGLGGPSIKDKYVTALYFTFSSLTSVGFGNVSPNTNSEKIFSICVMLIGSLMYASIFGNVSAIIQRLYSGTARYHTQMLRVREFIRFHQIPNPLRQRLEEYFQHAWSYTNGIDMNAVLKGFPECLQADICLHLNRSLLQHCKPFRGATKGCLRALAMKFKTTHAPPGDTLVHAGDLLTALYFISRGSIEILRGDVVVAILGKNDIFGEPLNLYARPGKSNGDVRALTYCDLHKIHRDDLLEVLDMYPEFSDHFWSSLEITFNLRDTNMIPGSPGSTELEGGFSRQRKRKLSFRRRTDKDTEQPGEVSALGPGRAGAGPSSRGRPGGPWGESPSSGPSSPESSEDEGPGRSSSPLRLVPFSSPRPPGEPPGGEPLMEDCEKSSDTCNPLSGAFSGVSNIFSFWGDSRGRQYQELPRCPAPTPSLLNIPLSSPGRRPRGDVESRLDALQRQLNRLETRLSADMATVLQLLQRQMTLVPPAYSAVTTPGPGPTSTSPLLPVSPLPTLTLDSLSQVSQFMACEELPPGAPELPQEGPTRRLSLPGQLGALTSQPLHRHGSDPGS

[28] = tested on: Staphylococcus aureus; experiment: Ratio of MIC for methicillin-resistant Staphylococcus aureus ATCC 33592 in presence of 50% mouse serum to MIC for methicillin-resistant Staphylococcus aureus ATCC 33592 in absence of 50% mouse serum; format: functional
[29] = tested on: Staphylococcus aureus; experiment: Ratio of MIC for methicillin-resistant Staphylococcus aureus ATCC 33592 in presence of 50% calf fetal serum to MIC for methicillin-resistant Staphylococcus aureus ATCC 33592 in absence of 50% calf fetal serum; format: functional

| Structure (SMILES) | MIC [1] [µg/mL] | MIC [2] [µg/mL] | MIC [3] [µg/mL] | MIC [4] [µg/mL] | MIC [5] [µg/mL] | MIC [6] [µg/mL] | MIC [16] [µg/mL] | MIC [17] [µg/mL] | MIC [18] [µg/mL] | other results |
| --- | --- | --- | --- | --- | --- | --- | --- | --- | --- | --- |
| O=c1c2nccn2c2cc(F)c(-c3ccncc3)cc2n1C1CC1 | 16 (≈ 49.9 µM) | 32 (≈ 99.9 µM) | < 0.125 | > 64 | 8 (≈ 25 µM) | 4 (≈ 12.5 µM) | 0.063 (≈ 0.197 µM) | 0.5 (≈ 1.56 µM) |  | Activity [7]: Active; Activity [8]: Active; metabolised at 20 min, 5 µM [9]: 13%; metabolised at 20 min, 5 µM [10]: 81%; metabolised at 20 min, 5 µM [11]: 68%; remaining at 4 h, 1 µM [12]: 80 to 120%; remaining at 4 h, 1 µM [13]: 80 to 120%; Activity [14]: Toxic; Activity [15]: Toxic |
| N[C@H]1CCN(c2cc3c(cc2F)c2nc[nH]c2c(=O)n3C2CC2)C1 | 16 (≈ 48.9 µM) | 64 (≈ 196 µM) | 0.5 (≈ 1.53 µM) | 64 (≈ 196 µM) | 0.5 (≈ 1.53 µM) | 16 (≈ 48.9 µM) |  |  | 16 (≈ 48.9 µM) | Activity [7]: Active; Activity [8]: Active |
| CC(=O)Nc1ccc(/C=c2\c3ccccc3c3c2n2ccnc2c(=O)n3C)cc1 | > 64 | > 64 | < 0.125 | > 64 | > 64 | 0.25 (≈ 0.654 µM) | 0.063 (≈ 0.165 µM) | 2 (≈ 5.23 µM) | > 64 | CC50 at 40 h [19]: 8.4 µM; solubility [20]: Insoluble; permeability [21]: Impermeable; Stability [22]: Unstable; Stability [23]: Unstable; degraded at 1 h [24]: > 50%; degraded at 1 h [25]: > 50%; Stability [26]: Stable; inhibition at 10 µM [27]: > 50%; Ratio [28]: >32; Ratio [29]: >32 |
| O=c1c2nccn2c2cc(F)c(-c3cccnc3)cc2n1C1CC1 | 16 (≈ 49.9 µM) | 32 (≈ 99.9 µM) | < 0.125 | > 64 | 4 (≈ 12.5 µM) | 64 (≈ 200 µM) |  |  | 8 (≈ 25 µM) |  |
| CNc1cc(=O)n(C)c2c1/C(=C/c1ccncc1)c1ccccc1-2 |  |  |  |  |  |  | 1 (≈ 3.17 µM) | 2 (≈ 6.34 µM) |  |  |
| O=c1c2nccn2c2cc(F)c(-c3ccccn3)cc2n1C1CC1 | > 64 | > 64 | 4 (≈ 12.5 µM) | > 64 | > 64 | > 64 |  |  | > 64 |  |
| O=c1c2cncn2c2cc(F)c(-c3ccncc3)cc2n1C1CC1 | 64 (≈ 200 µM) | > 64 | 0.25 (≈ 0.78 µM) | > 64 | 32 (≈ 99.9 µM) | 64 (≈ 200 µM) |  |  | 64 (≈ 200 µM) |  |
